{
  "source": "patent US20260207572A1",
  "about": "“METHODS AND COMPOSITIONS FOR TREATMENT OF SUBJECTS WITH HEPATIC IMPAIRMENTS” (ELEVAR THERAPEUTICS, INC., priority 2022, published 2026)",
  "key": {"plasma protein": {"tested_on": "plasma protein", "assay": "Phase 1 study: unbound plasma concentration and fraction unbound (protein binding)", "assay_type": "in vivo, human", "settings": "4 h, 200 mg single oral dose; for fraction unbound at 4 h: human, plasma, po, 200 mg, read-out: Fraction Unbound, Arithmetic Mean"}, "[1]": {"assay": "Phase 1 study: unbound plasma concentration and fraction unbound (protein binding)", "assay_type": "in vivo, human", "settings": "human, plasma, po, 200 mg, 200 mg single oral dose"}, "CYP2C8": {"biological_target": "T1, CYP2C8 (Homo sapiens, UniProt P10632)", "T1 sequence (P10632 1-490)": "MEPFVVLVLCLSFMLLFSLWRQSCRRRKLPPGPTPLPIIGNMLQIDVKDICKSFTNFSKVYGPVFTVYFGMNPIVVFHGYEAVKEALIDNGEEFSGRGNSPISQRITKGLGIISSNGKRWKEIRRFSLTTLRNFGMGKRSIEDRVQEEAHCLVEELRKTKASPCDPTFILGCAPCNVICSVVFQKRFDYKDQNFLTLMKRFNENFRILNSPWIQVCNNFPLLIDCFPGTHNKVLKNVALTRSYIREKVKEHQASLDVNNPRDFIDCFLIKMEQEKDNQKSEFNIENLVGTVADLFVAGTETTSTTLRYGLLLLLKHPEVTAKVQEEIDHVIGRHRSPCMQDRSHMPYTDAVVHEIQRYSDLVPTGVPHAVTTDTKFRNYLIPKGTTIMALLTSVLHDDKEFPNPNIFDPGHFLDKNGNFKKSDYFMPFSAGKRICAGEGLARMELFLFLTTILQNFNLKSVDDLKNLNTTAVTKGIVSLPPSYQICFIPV", "assay": "In vitro CYP phenotyping and metabolism study, recombinant CYP2C8", "assay_type": "in vitro ADME", "experimental": "(§1) Recently, an in vitro cytochrome (CYP) phenotyping and metabolism study was performed."}, "CYP2C9": {"biological_target": "CYP2C9 (Homo sapiens, UniProt P11712)", "sequence (P11712 whole entry)": "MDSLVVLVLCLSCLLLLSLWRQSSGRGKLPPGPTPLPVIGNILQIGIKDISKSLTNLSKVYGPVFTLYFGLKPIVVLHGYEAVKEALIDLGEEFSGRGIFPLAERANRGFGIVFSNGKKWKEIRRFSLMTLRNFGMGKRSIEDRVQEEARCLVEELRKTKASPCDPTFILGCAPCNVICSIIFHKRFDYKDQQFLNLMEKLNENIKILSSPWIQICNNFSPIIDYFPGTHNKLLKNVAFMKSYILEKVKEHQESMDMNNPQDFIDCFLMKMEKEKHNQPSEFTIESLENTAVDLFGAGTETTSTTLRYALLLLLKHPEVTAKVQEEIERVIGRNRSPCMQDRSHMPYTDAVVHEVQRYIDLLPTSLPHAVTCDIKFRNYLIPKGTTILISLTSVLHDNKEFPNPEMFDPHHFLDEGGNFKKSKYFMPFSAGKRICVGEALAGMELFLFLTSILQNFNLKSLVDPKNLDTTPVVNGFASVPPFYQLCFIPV", "assay": "In vitro CYP phenotyping and metabolism study, recombinant CYP2C9", "assay_type": "in vitro ADME", "experimental": "as §1"}, "[2]": {"settings": "Mild Hepatic Impairment, read-out: Fraction Unbound, Geometric Mean"}, "[3]": {"settings": "Mild Hepatic Impairment, read-out: Fraction Unbound, Median"}, "[4]": {"settings": "Mild Hepatic Impairment, read-out: Unbound Concentration, Arithmetic Mean"}, "[5]": {"settings": "Mild Hepatic Impairment, read-out: Unbound Concentration, Geometric Mean"}, "[6]": {"settings": "Mild Hepatic Impairment, read-out: Unbound Concentration, Median"}, "[7]": {"settings": "Moderate Hepatic Impairment, read-out: Fraction Unbound, Geometric Mean"}, "[8]": {"settings": "Moderate Hepatic Impairment, read-out: Fraction Unbound, Median"}, "[9]": {"settings": "Moderate Hepatic Impairment, read-out: Unbound Concentration, Arithmetic Mean"}, "[10]": {"settings": "Moderate Hepatic Impairment, read-out: Unbound Concentration, Geometric Mean"}, "[11]": {"settings": "Moderate Hepatic Impairment, read-out: Unbound Concentration, Median"}, "[12]": {"settings": "Normal Hepatic Function, read-out: Fraction Unbound, Geometric Mean"}, "[13]": {"settings": "Normal Hepatic Function, read-out: Fraction Unbound, Median"}, "[14]": {"settings": "Normal Hepatic Function, read-out: Unbound Concentration, Arithmetic Mean"}, "[15]": {"settings": "Normal Hepatic Function, read-out: Unbound Concentration, Geometric Mean"}, "[16]": {"settings": "Normal Hepatic Function, read-out: Unbound Concentration, Median"}},
  "note": "Like-named read-outs stand apart in the source and are kept apart here.",
  "data": [
    {"smiles": "N#CC1(c2ccc(NC(=O)c3cccnc3NCc3ccncc3)cc2)CCCC1", "note": "[Rivoceranib, N-[4-(1-cyanocyclopentyl)phenyl]-2-{[(pyridin-4-yl)methyl]amino} pyridine-3-carboxamide]", "values": [
      {"measurement": "Fraction Unbound, Arithmetic Mean", "setting": "plasma protein; Mild Hepatic Impairment", "value": 2.39, "unit": "%"},
      {"measurement": "fraction unbound at 4 h", "setting": "plasma protein; Mild Hepatic Impairment", "value": "0.0239 ± 0.00639"},
      {"measurement": "fraction unbound at 4 h", "setting": "plasma protein; Moderate Hepatic Impairment", "value": "0.0425 ± 0.022"},
      {"measurement": "fraction unbound at 4 h", "setting": "plasma protein; Normal Hepatic Function", "value": "0.0265 ± 0.0119"},
      {"measurement": "fraction unbound at 4 h", "setting": "[1]; [2]", "value": 0.0232},
      {"measurement": "fraction unbound at 4 h", "setting": "[1]; [3]", "value": 0.0232},
      {"measurement": "concentration at 4 h", "setting": "[1]; [4]", "value": 3.78, "unit": "ng/mL"},
      {"measurement": "concentration at 4 h", "setting": "[1]; [5]", "value": 2.59, "unit": "ng/mL"},
      {"measurement": "concentration at 4 h", "setting": "[1]; [6]", "value": 2.37, "unit": "ng/mL"},
      {"measurement": "fraction unbound at 24 h", "setting": "[1]; Mild Hepatic Impairment, read-out: Fraction Unbound, Arithmetic Mean", "value": 0.0201},
      {"measurement": "fraction unbound at 24 h", "setting": "[1]; [2]", "value": 0.0191},
      {"measurement": "fraction unbound at 24 h", "setting": "[1]; [3]", "value": 0.0174},
      {"measurement": "concentration at 24 h", "setting": "[1]; [4]", "value": 0.63, "unit": "ng/mL"},
      {"measurement": "concentration at 24 h", "setting": "[1]; [5]", "value": 0.55, "unit": "ng/mL"},
      {"measurement": "concentration at 24 h", "setting": "[1]; [6]", "value": 0.65, "unit": "ng/mL"},
      {"measurement": "fraction unbound at 4 h", "setting": "[1]; [7]", "value": 0.0373},
      {"measurement": "fraction unbound at 4 h", "setting": "[1]; [8]", "value": 0.0419},
      {"measurement": "concentration at 4 h", "setting": "[1]; [9]", "value": 4.73, "unit": "ng/mL"},
      {"measurement": "concentration at 4 h", "setting": "[1]; [10]", "value": 4.52, "unit": "ng/mL"},
      {"measurement": "concentration at 4 h", "setting": "[1]; [11]", "value": 4.15, "unit": "ng/mL"},
      {"measurement": "fraction unbound at 24 h", "setting": "[1]; Moderate Hepatic Impairment, read-out: Fraction Unbound, Arithmetic Mean", "value": 0.022},
      {"measurement": "fraction unbound at 24 h", "setting": "[1]; [7]", "value": 0.021},
      {"measurement": "fraction unbound at 24 h", "setting": "[1]; [8]", "value": 0.021},
      {"measurement": "concentration at 24 h", "setting": "[1]; [9]", "value": 1.07, "unit": "ng/mL"},
      {"measurement": "concentration at 24 h", "setting": "[1]; [10]", "value": 0.82, "unit": "ng/mL"},
      {"measurement": "concentration at 24 h", "setting": "[1]; [11]", "value": 0.82, "unit": "ng/mL"},
      {"measurement": "fraction unbound at 4 h", "setting": "[1]; [12]", "value": 0.0243},
      {"measurement": "fraction unbound at 4 h", "setting": "[1]; [13]", "value": 0.0212},
      {"measurement": "concentration at 4 h", "setting": "[1]; [14]", "value": 4.44, "unit": "ng/mL"},
      {"measurement": "concentration at 4 h", "setting": "[1]; [15]", "value": 3.62, "unit": "ng/mL"},
      {"measurement": "concentration at 4 h", "setting": "[1]; [16]", "value": 3.76, "unit": "ng/mL"},
      {"measurement": "fraction unbound at 24 h", "setting": "[1]; Normal Hepatic Function, read-out: Fraction Unbound, Arithmetic Mean", "value": 0.0172},
      {"measurement": "fraction unbound at 24 h", "setting": "[1]; [12]", "value": 0.0168},
      {"measurement": "fraction unbound at 24 h", "setting": "[1]; [13]", "value": 0.0155},
      {"measurement": "concentration at 24 h", "setting": "[1]; [14]", "value": 0.73, "unit": "ng/mL"},
      {"measurement": "concentration at 24 h", "setting": "[1]; [15]", "value": 0.68, "unit": "ng/mL"},
      {"measurement": "concentration at 24 h", "setting": "[1]; [16]", "value": 0.69, "unit": "ng/mL"},
      {"measurement": "rivoceranib consumed at 60 minute incubation", "setting": "CYP2C8; CYP2C8", "value": "less than 10%"},
      {"measurement": "% Remaining at 60 minute incubation", "setting": "CYP2C8; Recombinant CYP2C8, 5 μM", "value": 103, "unit": "%"},
      {"measurement": "CLINT", "setting": "CYP2C8; Recombinant CYP2C8, 5 μM", "value": 0.037, "unit": "μL/minunte/mg"},
      {"measurement": "half-life at 5 µM", "setting": "CYP2C8; human, Recombinant CYP2C8, 5 μM, read-out: t½", "value": 12.6, "unit": "h"},
      {"measurement": "rivoceranib consumed at 60 minute incubation", "setting": "CYP2C9; CYP2C9", "value": "less than 10%"},
      {"measurement": "% Remaining at 60 minute incubation", "setting": "CYP2C9; Recombinant CYP2C9, 5 μM", "value": 90.3, "unit": "%"},
      {"measurement": "CLINT", "setting": "CYP2C9; Recombinant CYP2C9, 5 μM", "value": 0.119, "unit": "μL/minunte/mg"},
      {"measurement": "half-life at 5 µM", "setting": "CYP2C9; human, Recombinant CYP2C9, 5 μM, read-out: t½", "value": 3.9, "unit": "h"}
    ]}
  ]
}
